Assay results from patent US6525059B1, “Substituted pyrazoles as p38 kinase inhibitors” (G. D. Searle & Company, priority 1998, dated 2003).
Read-outs that look alike come from different tables or passages of the source. Each block holds one compound with its values, some of them ahead of it.

Legend:
[1] = test system: TNF a; assay: LPS stimulation of human PBMs, TNF a by ELISA; format: cell-based; settings: LPS-stimulated human PBMs, TNF cell assay; read-out: Human PBM Assay IC50
Protocol: Human whole blood was collected in Vacutainer tubes containing EDTA as an anticoagulant. A blood sample (7 ml) was carefully layered over 5 ml PMN Cell Isolation Medium (Robbins Scientific) in a 15 ml round bottom centrifuge tube. The sample was centrifuged at 450-500×g for 30-35 minutes in a swing out rotor at room temperature. After centrifugation, the top band of cells were removed and washed 3 times with PBS w/o calcium or magnesium. The cells were centrifuged at 400×g for 10 minutes at room temperature. The cells were resuspended in Macrophage Serum Free Medium (Gibco BRL) at a concentration of 2 million cells/ml.
Compounds were dissolved in DMSO initially and diluted in TCM for a final-concentration of 0.1% DMSO. LPS (Calbiochem, 20 ng/ml, final concentration) was then added at a volume of 0.010 ml. Cultures were incubated overnight at 37° C. Supernatants were then removed and tested by ELISA for TNF a and IL1-b. Viability was analyzed using MTS. After 0.1 ml supernatant was collected, 0.0,20 ml MTS was added to remaining 0.1 ml cells.

[2] = test system: TNF-α; assay: LPS stimulation of TNF production by U937 cells; format: cell-based, human; settings: Homo sapiens, U-937, LPS-stimulated U937 cells
Method in brief: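 PMA-differentiated human U937 cells (20 ng/ml PMA, 24 h, then 24-48 h rest) at 2 million cells/ml, 0.1% DMSO final, stimulated with E. coli LPS (100 ng/ml final) for 4 h at 37° C. TNF-α in medium measured by ELISA; IC50 in μM.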

[3] = biological target: T1, human p38 kinase alpha (Homo sapiens, UniProt Q16539); assay: p38 kinase in vitro assay, phosphorylation of biotinylated PHAS-I with gamma 32P-ATP; format: biochemical
T1 construct: The coding region of the human p38a cDNA was obtained by PCR-amplification from RNA isolated from the human monocyte cell line THP.1; GST (N); made in house; host or cells: E. coli DH10B
Method in brief: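 MKK6-activated human p38α phosphorylates biotinylated PHAS-I with γ-32P-ATP in 25 mM HEPES pH 7.5, 10 mM Mg acetate, 50 μM unlabeled ATP, 1% DMSO, 30 °C for 1 h or overnight. Compounds at 100–0.001 μM (10-fold steps, triplicate); substrate captured on streptavidin filter plates and counted by scintillation.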

[4] = biological target: T2, human GST-p38 kinase alpha (Homo sapiens, UniProt Q16539); assay: p38 kinase in vitro assay, second format, phosphorylation of EGFRP with 33P-ATP; format: biochemical; settings: p38α in vitro, EGFRP assay procedure; read-out: p38^2 IC50
T2 construct: The coding region of the human p38a cDNA was obtained by PCR-amplification from RNA isolated from the human monocyte cell line THP.1; made in house; host or cells: E. coli DH10B
Method in brief: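 Activated human GST-p38α (pre-activated with GST-MKK6, 1 h, 30 °C) phosphorylates EGFR 21-mer peptide (200 μM) with 50 μM ATP plus γ-33P-ATP, pH 7.5, 60 min at room temperature. Unreacted ATP removed by AG 1×8 resin; supernatant scintillation-counted.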

[5] = test system: TNF alpha; assay: Mouse model of LPS-induced TNF alpha production; format: in vivo; settings: mouse, oral, 1h before LPS, 30 mpk; read-out: mLPS 1h, 30 mpk percent inhibition
[6] = activated human p38 kinase alpha, PHAS-I substrate, 50 μM unlabeled ATP, read-out: p38 kinase IC50
[7] = p38α in vitro, PHAS-I assay procedure, read-out: p38^1 IC50

T2 sequence (Q16539 whole entry): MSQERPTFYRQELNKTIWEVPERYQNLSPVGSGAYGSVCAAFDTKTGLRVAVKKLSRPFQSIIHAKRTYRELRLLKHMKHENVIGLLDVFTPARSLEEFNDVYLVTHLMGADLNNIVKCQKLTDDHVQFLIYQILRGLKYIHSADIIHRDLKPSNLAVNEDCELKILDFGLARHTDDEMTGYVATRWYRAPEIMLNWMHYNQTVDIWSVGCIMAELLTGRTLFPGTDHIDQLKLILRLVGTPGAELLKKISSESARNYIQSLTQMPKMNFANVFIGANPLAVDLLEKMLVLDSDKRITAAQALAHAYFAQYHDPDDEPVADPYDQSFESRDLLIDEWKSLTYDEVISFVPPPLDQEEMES
T1 sequence (Q16539 whole entry): as above

Compound: Cc1[nH]nc(-c2ccc(F)cc2)c1-c1ccncc1 [Example 4, 4-[3-(4-fluorophenyl)-5-methyl-1H-pyrazol-4-yl)pyridine]
IC50 [1]: 100 nM
IC50 ([2]; read-out: U937 Cell Assay IC50): 222 nM

Compound: Cc1n[nH]c(-c2ccc(Cl)cc2)c1-c1ccncc1 [Example A-7, 4-(3-(4-chlorophenyl)-5-methyl-1H-pyrazol-4-yl)pyridine]
IC50 [1]: 200 nM
IC50 ([2]; read-out: U937 Cell Assay IC50): 201 nM

Compound: Cc1cccc(-c2[nH]nc(C)c2-c2ccncc2)c1 [Example A-8]
IC50 [1]: < 100 nM
IC50 [3, 6]: < 100 nM

Compound: Cc1ccc(C)c(-c2[nH]nc(C)c2-c2ccncc2)c1 [Example A-9]
IC50 [1]: 400 nM

Compound: Cc1n[nH]c(-c2cccc(Oc3ccccc3)c2)c1-c1ccncc1 [Example A-13]
IC50 [1]: 4800 nM

Compound: Cc1cccc(-c2[nH]nc(C(F)(F)F)c2-c2ccncc2)c1 [Example A-22, 4-[5-(3-methylphenyl)-3-(trifluoromethyl)-1H-pyrazol-4-yl]pyridine]
melting point: 237 to 239 °C
IC50 [1]: 3200 nM

Compound: Cc1n[nH]c(C2CCCCC2)c1-c1ccncc1 [Example A-24]
IC50 [1]: 8200 nM

Compound: Cn1nc(-c2ccc(F)cc2)c(-c2ccncc2)c1Br [Example A-214, 4-[5-bromo-3-(4-fluorophenyl)-1-methyl-1H-pyrazol-4-yl]pyridine]
melting point: 174.38 °C
IC50 [4]: 60 nM
inhibition in vivo at 30 mg/kg [5]: 70%

Compound: CN(C)CCn1cc(-c2ccnc(F)c2)c(-c2ccc(F)cc2)n1 [Example A-271, 3-(4-fluorophenyl)-4-(2-fluoro-4-pyridinyl)-N,N-dimethyl-1H-pyrazole-1-ethanamine]
IC50 [4]: 216 nM
inhibition in vivo at 30 mg/kg [5]: 68%
IC50 ([2]; read-out: U937 IC50): 4210 nM

Now from value to compound, other results behind:

IC50 [1]: 500 nM
IC50 [3, 6]: 4600 nM
Compound: COc1ccc(-c2[nH]nc(C)c2-c2ccncc2)cc1F [Example A-1, 4-[5-(3-fluoro-4-methoxyphenyl)-3-methyl-1H-pyrazol-4-yl]pyridine]

melting point: 212 to 214 °C
IC50 [1]: 1600 nM
IC50 [3, 6]: 1500 nM
IC50 ([2]; read-out: U937 Cell Assay IC50): 578 nM
Compound: Cc1n[nH]c(-c2ccccc2)c1-c1ccncc1 [Example A-2, 4-(3-methyl-5-phenyl-1H-pyrazol-4-yl)pyridine]

IC50 [1]: 700 nM
IC50 ([2]; read-out: U937 Cell Assay IC50): 1690 nM
Compound: Cc1n[nH]c(-c2ccc3c(c2)OCO3)c1-c1ccncc1 [Example A-10, 4-[5-(1,3-benzodioxol-5-yl)-3-methyl-1H-pyrazol-4-yl]pyridine]

IC50 [1]: 8500 nM
Compound: Cc1n[nH]c(-c2ccc(-c3ccccc3)cc2)c1-c1ccncc1 [Example A-12, 4-[5-[(1,1′-biphenyl)-4-yl]-3-methyl-1H-pyrazol-4-yl]pyridine]

IC50 [1]: 1200 nM
Compound: Cc1n[nH]c(-c2cccc(OCc3ccccc3)c2)c1-c1ccncc1 [Example A-14, 4-[3-methyl-5-[3-(phenylmethoxy)phenyl]-1H-pyrazol-4-yl]pyridine]

IC50 [1]: 1100 nM
Compound: Cc1n[nH]c(-c2cccc(O)c2)c1-c1ccncc1 [Example A-17, 3-[3-methyl-4-(4-pyridinyl)-1H-pyrazol-4-yl]phenol]

melting point: 245 to 247 °C
IC50 [1]: 300 nM
IC50 ([2]; read-out: U937 Cell Assay IC50): 484 nM
Compound: CN(C)c1n[nH]c(-c2ccc(F)cc2)c1-c1ccncc1 [Example A-19, 5-(4-fluorophenyl)-N, N-dimethyl-4-(4-pyridinyl)-1H-pyrazol-3-amine]

IC50 [1]: < 100 nM
IC50 [3, 6]: < 100 nM
Compound: CCc1[nH]nc(-c2cccc(C)c2)c1-c1ccncc1 [Example A-45]

IC50 [4]: 740 nM
IC50 [3, 7]: 490 nM
IC50 ([2]; read-out: U937 IC50): 96.7 nM
Compound: Cn1cc(-c2ccncc2)c(-c2ccc(F)cc2)n1 [Example A-212, 4-[3-(4-fluorophenyl)-1-methyl-1H-pyrazol-4-yl]pyridine]
inhibition in vivo at 30 mg/kg [5]: 93%

melting point: 209.22 °C
IC50 [4]: 2340 nM
IC50 ([2]; read-out: U937 IC50): 298 nM
Compound: N#Cc1cc(-c2c[nH]nc2-c2ccc(F)cc2)ccn1 [Example A-215, 4-[3-(4-fluorophenyl)-1H-pyrazol-4-yl]-2-pyridinecarbonitrile]
inhibition in vivo at 30 mg/kg [5]: 80%

IC50 [4]: 339 nM
IC50 [3, 7]: 760 nM
IC50 ([2]; read-out: U937 IC50): 417 nM
Compound: c1cc(-c2c[nH]nc2-c2ccc3c(c2)OCO3)ccn1 [Example A-228, 4-[3-(1,3-benzodioxol-5-yl)-1H-pyrazol-4-yl]pyridine]
inhibition in vivo at 30 mg/kg [5]: 92%

IC50 [4]: < 100 nM
IC50 [3, 7]: < 10 nM
IC50 ([2]; read-out: U937 IC50): 543 nM
Compound: Fc1ccc(-c2n[nH]cc2-c2ccnc(NC3CCN(Cc4ccccc4)CC3)c2)cc1 [Example A-263, 4-[3-(4-fluorophenyl)-1H-pyrazol-4-yl]-N-[1-(phenylmethyl)-4-piperidinyl]-2-pyridinamine]
inhibition in vivo at 30 mg/kg [5]: 49%
